B1: CRP: C-reactive protein, interferent in selectivity test (protein, UniProt P02741 19-224, looked up)
C-reactive protein: QTDMSRKAFVFPKESDTSYVSLKAPLTKPLKAFTVCLHFYTELSSTRGYSIFSYATKRQDNEILIFWSKDIGYSFTVGGSEILFEVPEVTVAPVHICTSWESASGIVEFWVDGKPRVRKSLKKGYTVGAEASIILGQEQDSFGGNFEGSQSLVGDIGNVNMWDFVLSPDEINTIYLGGPFSPNVLNWRALKYEVQGEVFTKPQLWP

Biological target: aβ 1-42 peptide
Assay: not given
Conditions: Fluorescent; ref [43]; cited from earlier work
Description: Table 2 Dissociation constants Kd of the interaction between aβ 1-42 peptide and various binding partners. | column: Kd (nM)

Molecule | Kd
CN(C)c1ccc(/C=C/C2=CC(/C=C/c3ccc(N(C)C)cc3)=[O+][B-](F)(F)O2)cc1 [CRANAD-2, (T-4)-((1E,6E)-1,7-bis(4-(dimethylamino)phenyl)-1,6-heptadiene-3,5-dionato-kO^3,kO^5)difluoro-boron] | 0.0387 µM
N#CC(C#N)=Cc1ccc(-c2ccc(-c3ccc(O)cc3)s2)s1 [NIAD-4, {(50-(p-Hydroxyphenyl)-2,20-bithienyl-5-yl)-methylidene}-propanedinitrile] | 0.01 µM
CN(C)c1ccc(/C=C/C=C/C=C(C#N)C#N)cc1 [DANIR-2c] | 0.0269 µM

System: anti-aβ/SAM/ICE biosensor (anti-aβ antibody MOAB-2)
Assay: Selectivity of biosensor: change in capacitance ΔC with different analytes
Format: binding
Conditions: 1 Hz, in HS; TNF-α 0.5 ng mL^−1, insulin 10^3 ng mL^−1, CRP 10^5 ng mL^−1; n = 3
Procedure: Electrical impedance spectroscopy (EIS) (EC-Lab, Sp-200, Bio-Logic Science Instruments, Seyssinet-Pariset, France) was used for the recording of impedance and capacitance of the biosensor in PBS (pH 7.4). The EIS output signal is measured by applying an input voltage of 10 mV in a frequency range from 100 mHz–100 Hz, to the working and reference electrode. To explore the clinical application, the capacitive anti-aβ/SAM/ICE biosensor was employed for the direct detection of aβ 1-42 peptide in HS. Firstly, the pure HS was diluted in 1× PBS buffer at the ratio (1:1000), to avoid matrix effects in the measurement. Next, 1 μg mL^−1 of aβ 1-42 in pure HS was made, and then differential concentrations of aβ from 10^−3 to 10^3 ng mL^−1 were diluted using HS (1:1000). Various concentrations of aβ (10^−3–10^3 ng mL^−1) were incubated in the HS (1:1000) with the biosensor for 20 min, and the capacitance was measured. To verify the selectivity of the anti-aβ/SAM/ICE biosensor, the effects of tumor necrosis factor-alpha (TNF-α, 0.5 ng mL^−1), insulin (10^3 ng mL^−1), and C-reactive protein (CRP, 10^5 ng mL^−1) in HS were characterized using the change in capacitance ΔC value at 1 Hz frequency (Figure 7a). […] Moreover, the fabricated aβ/SAM/ICE biosensors were kept in the refrigerator at 4 °C for storage. Then, the capacitance of the biosensor at 1 Hz was recorded in PBS at 24 °C of room temperature, on the 1st, 2nd, 3rd, 7th, and 14th day after taking it out to check the stability of the biosensor, as shown in Figure 7b.

Molecule | interference with aβ detection | ΔC response (change in capacitance)
insulin: insulin, interferent in selectivity test | no significant interference | did not change much compared to the ΔC response for aβ
TNF-α | no significant interference | did not change much compared to the ΔC response for aβ
B1 | no significant interference | did not change much compared to the ΔC response for aβ

— publication PMC7569882, “A Probeless Capacitive Biosensor for Direct Detection of Amyloid Beta 1-42 in Human Serum Based on an Interdigitated Chain-Shaped Electrode” (Micromachines, 2020)
